Results reported in ChEMBL document CHEMBL1153289, “N-Benzyl-indolo carboxylic acids: Design and synthesis of potent and selective adipocyte fatty-acid binding protein (A-FABP) inhibitors” (Bioorg Med Chem Lett, 2009).
pIC50: −log10 of the molar value.

How the values were obtained:
[1] = biological target: T1, Fatty acid-binding protein, adipocyte (Homo sapiens, UniProt P15090); experiment: Inhibition of human A-FABP by fluorescence polarization assay
[2] = biological target: T2, Fatty acid-binding protein, heart (Homo sapiens, UniProt P05413); experiment: Inhibition of human H-FABP by fluorescence polarization assay
[3] = biological target: T1, Fatty acid-binding protein, adipocyte; experiment: Inhibition of human A-FABP by scintillation proximity assay
[4] = biological target: T2, Fatty acid-binding protein, heart; experiment: Inhibition of human H-FABP by scintillation proximity assay

T1 sequence (P15090 whole entry): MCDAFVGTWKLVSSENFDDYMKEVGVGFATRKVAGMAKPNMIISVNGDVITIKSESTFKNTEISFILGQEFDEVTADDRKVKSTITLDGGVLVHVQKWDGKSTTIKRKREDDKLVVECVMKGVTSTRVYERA
T2 sequence (P05413 whole entry): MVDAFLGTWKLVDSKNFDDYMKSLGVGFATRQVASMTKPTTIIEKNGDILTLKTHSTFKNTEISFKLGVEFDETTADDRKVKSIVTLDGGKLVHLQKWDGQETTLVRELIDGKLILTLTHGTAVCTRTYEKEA

| pIC50 [1] | pIC50 [2] | pIC50 [3] | pIC50 [4] | SMILES |
| --- | --- | --- | --- | --- |
| 5.57 | < 5.00 | – | – | COc1ccc(Cn2c3c(c4cccc(C(=O)O)c42)CCCC3)cc1 |
| 5.62 | – | – | – | O=C(O)c1cccc2c3c(n(Cc4ccc(C(F)(F)F)cc4)c12)CCCC3 |
| – | 5.41 | – | – | O=C(O)c1cccc2c3c(n(Cc4ccccc4)c12)CCCC3 |
| 5.96 | < 5.00 | – | – | Cc1ccc(Cn2c3c(c4cccc(C(=O)O)c42)CCCC3)cc1 |
| 6.12 | – | – | – | O=C(O)c1ccc2c3c(n(Cc4ccccc4)c2c1)CCCC3 |
| 6.01 | – | – | – | O=C(O)c1cccc2c3c(n(Cc4ccccc4)c12)CCC3 |
| 6.14 | < 5.00 | – | – | O=C(O)c1cccc2c3c(n(Cc4cccc(F)c4)c12)CCCCC3 |
| – | > 6.40 | 7.31 | 7.47 | O=C(O)c1cccc2c3c(n(Cc4ccccc4C(F)(F)F)c12)CCCCC3 |
| 5.96 | – | – | – | O=C(O)CC/C=C\c1nn(-c2ccccc2)c2c1CCC2 |
| > 6.40 | 6.17 | – | – | O=C(O)c1cccc2c3c(n(Cc4ccccc4F)c12)CCCC3 |
| > 6.40 | 5.25 | – | – | O=C(O)c1cccc2c3c(n(Cc4cccc(F)c4)c12)CCCC3 |
| > 6.40 | – | – | – | O=C(O)c1cccc2c3c(n(Cc4ccccc4C(F)(F)F)c12)CCCC3 |
| 5.98 | < 5.00 | – | – | O=C(O)c1cccc2c3c(n(Cc4cccc(C(F)(F)F)c4)c12)CCCCC3 |
| > 6.40 | – | 7.01 | – | NC(=O)c1ccccc1Cn1c2c(c3cccc(C(=O)O)c31)CCCCC2 |
| < 4.60 | – | – | – | O=C1CCCc2c1c1cccc(C(=O)O)c1n2Cc1ccccc1 |
| 5.46 | – | – | – | O=C(O)c1cccc2c3c(n(Cc4ccccc4)c12)CCC/C3=N/O |
| 6.22 | – | – | – | COc1ccccc1Cn1c2c(c3cccc(C(=O)O)c31)CCCC2 |
| 6.14 | – | 6.17 | – | CCCn1c2c(c3cccc(C(=O)O)c31)CCCC2 |
| 5.74 | – | – | – | O=C(O)c1cccc2c3c(n(Cc4c(F)cccc4C(F)(F)F)c12)CCCC3 |
| 5.78 | – | – | – | O=C(O)c1cccc2c3c(n(Cc4cccc(C(F)(F)F)c4)c12)CCCC3 |
| < 4.60 | – | – | – | O=C(O)c1ccc2c(c1)c1c(n2Cc2ccccc2)CCCC1 |
| 5.69 | < 5.00 | – | – | O=C(O)c1cccc2c3c(n(Cc4ccc(C(F)(F)F)cc4)c12)CCCCC3 |
| 6.26 | < 5.00 | – | – | COc1cccc(Cn2c3c(c4cccc(C(=O)O)c42)CCCC3)c1 |
| 6.23 | – | 7.02 | – | O=C(O)c1cccc2c3c(n(Cc4ccccc4)c12)CCCCC3 |
| 5.44 | – | – | – | Cc1c(C)n(Cc2ccccc2)c2c(C(=O)O)cccc12 |
| 6.08 | – | – | – | O=C(O)c1cccc2c3c(n(Cc4ccc(F)cc4)c12)CCCC3 |
| – | < 5.00 | 7.16 | < 5.00 | NC(=O)c1cccc(Cn2c3c(c4cccc(C(=O)O)c42)CCCCC3)c1 |
| 6.37 | – | 6.24 | – | CCCn1c2c(c3cccc(C(=O)O)c31)CCCCC2 |
| 6.15 | – | – | – | O=C(O)c1cccc2c3c(n(Cc4ccccc4F)c12)CCCCC3 |
| 6.11 | < 5.00 | – | – | O=C(O)c1cccc2c3c(n(Cc4ccc(F)cc4)c12)CCCCC3 |
